{"source": "paper PMC4721062", "about": "“Oxadiazole-2-oxides may have other functional targets, in addition to SjTGR, through which they cause mortality in Schistosoma japonicum” (Parasites & Vectors, 2016)", "key": {"[1]": {"system": "juvenile S. japonicum", "assay": "microbe, parasite or virus in culture", "assay_type": "cell-based", "settings": "for mortality at 50 µM / killing at 2 µM / killing at 5 µM / killing at 50 µM: Schistosoma japonicum; for mortality at 50 µM: read-out: Mortality of juvenile worms; for killing at 2 µM / killing at 5 µM / killing at 50 µM / Killing activity 24hr / Killing activity 48hr / Killing activity 72hr: juvenile worms; for Killing activity 24hr / Killing activity 48hr / Killing activity 72hr: 10 μM", "outline": "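Juvenile S. japonicum, 20–30 tail-shed cercariae per well, were exposed to compounds at 2, 5, 10 and 50 μM in RPMI 1640 with 10% FBS and HEPES. Survival was scored microscopically at 24, 48 and 72 h, with death defined by disrupted internal structure or tegument or 1 min without motility. % D is dead/total, averaged over three experiments.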"}, "[2]": {"system": "adult S. japonicum", "assay": "microbe, parasite or virus in culture", "assay_type": "cell-based", "settings": "for mortality at 25 µM / killing at 25 µM / killing at 50 µM / killing at 100 µM: Schistosoma japonicum; for mortality at 25 µM: read-out: Mortality of adult worms; for killing at 25 µM / killing at 50 µM / killing at 100 µM / Killing activity 24hr / Killing activity 48hr / Killing activity 72hr: adult worms; for Killing activity 24hr / Killing activity 48hr / Killing activity 72hr: 10 μM", "outline": "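Adult worm pairs recovered by portal perfusion from ICR mice 35 days after infection with 50 cercariae, cultured in RPMI 1640 (pH 7.5, 20 mM HEPES, 10% FBS) at 37 °C, 5% CO2. Oxadiazole-2-oxides at 10, 25, 50, 100 μM; motility and survival scored microscopically at 24, 48, 72 h, death being no movement over 2 min; three independent experiments averaged.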"}, "[3]": {"settings": "24 h, read-out: Killing activity 24hr"}, "[4]": {"settings": "48 h, read-out: Killing activity 48hr"}, "[5]": {"settings": "72 h, read-out: Killing activity 72hr"}}, "note": "Where two headings read alike, the source gives them in different places."}
{"smiles": "N#Cc1c(-c2ccc(COc3ccccc3)cc2)no[n+]1[O-]", "note": "[Compound 23]", "values": [{"measurement": "mortality at 50 µM", "setting": "[1]; 24 h", "result": "> 70", "unit": "%"}, {"measurement": "killing at 2 µM", "setting": "[1]; [3]", "result": 6, "unit": "%"}, {"measurement": "killing at 2 µM", "setting": "[1]; [4]", "result": 16.1, "unit": "%"}, {"measurement": "killing at 2 µM", "setting": "[1]; [5]", "result": 17.7, "unit": "%"}, {"measurement": "killing at 5 µM", "setting": "[1]; [3]", "result": 9, "unit": "%"}, {"measurement": "killing at 5 µM", "setting": "[1]; [4]", "result": 15, "unit": "%"}, {"measurement": "killing at 5 µM", "setting": "[1]; [5]", "result": 20, "unit": "%"}, {"measurement": "killing at 50 µM", "setting": "[1]; [3]", "result": 69.9, "unit": "%"}, {"measurement": "killing at 50 µM", "setting": "[1]; [4]", "result": 70.8, "unit": "%"}, {"measurement": "killing at 50 µM", "setting": "[1]; [5]", "result": 77, "unit": "%"}, {"measurement": "Killing activity 24hr", "setting": "[1]; 24 h", "result": 45.0, "unit": "%D"}, {"measurement": "Killing activity 48hr", "setting": "[1]; 48 h", "result": 60.0, "unit": "%D"}, {"measurement": "Killing activity 72hr", "setting": "[1]; 72 h", "result": 66.7, "unit": "%D"}, {"measurement": "mortality at 25 µM", "setting": "[2]; 24 h", "result": "> 75", "unit": "%"}, {"measurement": "killing at 25 µM", "setting": "[2]; [3]", "result": 100, "unit": "%"}, {"measurement": "killing at 25 µM", "setting": "[2]; [4]", "result": 100, "unit": "%"}, {"measurement": "killing at 25 µM", "setting": "[2]; [5]", "result": 100, "unit": "%"}, {"measurement": "killing at 50 µM", "setting": "[2]; [3]", "result": 100, "unit": "%"}, {"measurement": "killing at 50 µM", "setting": "[2]; [4]", "result": 100, "unit": "%"}, {"measurement": "killing at 50 µM", "setting": "[2]; [5]", "result": 100, "unit": "%"}, {"measurement": "killing at 100 µM", "setting": "[2]; [3]", "result": 100, "unit": "%"}, {"measurement": "killing at 100 µM", "setting": "[2]; [4]", "result": 100, "unit": "%"}, {"measurement": "killing at 100 µM", "setting": "[2]; [5]", "result": 100, "unit": "%"}, {"measurement": "Killing activity 24hr", "setting": "[2]; 24 h", "result": 62.5, "unit": "%D"}, {"measurement": "Killing activity 48hr", "setting": "[2]; 48 h", "result": 87.5, "unit": "%D"}, {"measurement": "Killing activity 72hr", "setting": "[2]; 72 h", "result": 100, "unit": "%D"}]}
{"smiles": "N#Cc1c(-c2ccc(COc3ccc(C=O)cc3)cc2)no[n+]1[O-]", "note": "[Compound 26]", "values": [{"measurement": "killing at 2 µM", "setting": "[1]; [3]", "result": 36.4, "unit": "%"}, {"measurement": "killing at 2 µM", "setting": "[1]; [4]", "result": 36.4, "unit": "%"}, {"measurement": "killing at 2 µM", "setting": "[1]; [5]", "result": 50.9, "unit": "%"}, {"measurement": "killing at 5 µM", "setting": "[1]; [3]", "result": 48.9, "unit": "%"}, {"measurement": "killing at 5 µM", "setting": "[1]; [4]", "result": 48.9, "unit": "%"}, {"measurement": "killing at 5 µM", "setting": "[1]; [5]", "result": 53.2, "unit": "%"}, {"measurement": "killing at 50 µM", "setting": "[1]; [3]", "result": 46.3, "unit": "%"}, {"measurement": "killing at 50 µM", "setting": "[1]; [4]", "result": 63.4, "unit": "%"}, {"measurement": "killing at 50 µM", "setting": "[1]; [5]", "result": 85.4, "unit": "%"}, {"measurement": "Killing activity 24hr", "setting": "[1]; 24 h", "result": 56.1, "unit": "%D"}, {"measurement": "Killing activity 48hr", "setting": "[1]; 48 h", "result": 61.0, "unit": "%D"}, {"measurement": "Killing activity 72hr", "setting": "[1]; 72 h", "result": 80.5, "unit": "%D"}, {"measurement": "mortality at 25 µM", "setting": "[2]; 24 h", "result": "> 75", "unit": "%"}, {"measurement": "killing at 25 µM", "setting": "[2]; [3]", "result": 85.7, "unit": "%"}, {"measurement": "killing at 25 µM", "setting": "[2]; [4]", "result": 100, "unit": "%"}, {"measurement": "killing at 25 µM", "setting": "[2]; [5]", "result": 100, "unit": "%"}, {"measurement": "killing at 50 µM", "setting": "[2]; [3]", "result": 100, "unit": "%"}, {"measurement": "killing at 50 µM", "setting": "[2]; [4]", "result": 100, "unit": "%"}, {"measurement": "killing at 50 µM", "setting": "[2]; [5]", "result": 100, "unit": "%"}, {"measurement": "killing at 100 µM", "setting": "[2]; [3]", "result": 100, "unit": "%"}, {"measurement": "killing at 100 µM", "setting": "[2]; [4]", "result": 100, "unit": "%"}, {"measurement": "killing at 100 µM", "setting": "[2]; [5]", "result": 100, "unit": "%"}, {"measurement": "Killing activity 24hr", "setting": "[2]; 24 h", "result": "n.e."}, {"measurement": "Killing activity 48hr", "setting": "[2]; 48 h", "result": "n.e."}, {"measurement": "Killing activity 72hr", "setting": "[2]; 72 h", "result": 16.7, "unit": "%D"}]}
{"smiles": "Cc1ccc2cccc(OCc3ccc(-c4no[n+]([O-])c4C#N)cc3)c2n1", "note": "[Compound 28]", "values": [{"measurement": "mortality at 50 µM", "setting": "[1]; 24 h", "result": "< 30", "unit": "%"}, {"measurement": "killing at 2 µM", "setting": "[1]; [3]", "result": 8.2, "unit": "%"}, {"measurement": "killing at 2 µM", "setting": "[1]; [4]", "result": 13.7, "unit": "%"}, {"measurement": "killing at 2 µM", "setting": "[1]; [5]", "result": 19.2, "unit": "%"}, {"measurement": "killing at 5 µM", "setting": "[1]; [3]", "result": 14.8, "unit": "%"}, {"measurement": "killing at 5 µM", "setting": "[1]; [4]", "result": 21.6, "unit": "%"}, {"measurement": "killing at 5 µM", "setting": "[1]; [5]", "result": 26.1, "unit": "%"}, {"measurement": "killing at 50 µM", "setting": "[1]; [3]", "result": 31.9, "unit": "%"}, {"measurement": "killing at 50 µM", "setting": "[1]; [4]", "result": 36.2, "unit": "%"}, {"measurement": "killing at 50 µM", "setting": "[1]; [5]", "result": 39.1, "unit": "%"}, {"measurement": "Killing activity 24hr", "setting": "[1]; 24 h", "result": 14.5, "unit": "%D"}, {"measurement": "Killing activity 48hr", "setting": "[1]; 48 h", "result": 17.4, "unit": "%D"}, {"measurement": "Killing activity 72hr", "setting": "[1]; 72 h", "result": 30.4, "unit": "%D"}, {"measurement": "mortality at 25 µM", "setting": "[2]; 24 h", "result": "> 75", "unit": "%"}, {"measurement": "killing at 25 µM", "setting": "[2]; [3]", "result": 100, "unit": "%"}, {"measurement": "killing at 25 µM", "setting": "[2]; [4]", "result": 100, "unit": "%"}, {"measurement": "killing at 25 µM", "setting": "[2]; [5]", "result": 100, "unit": "%"}, {"measurement": "killing at 50 µM", "setting": "[2]; [3]", "result": 100, "unit": "%"}, {"measurement": "killing at 50 µM", "setting": "[2]; [4]", "result": 100, "unit": "%"}, {"measurement": "killing at 50 µM", "setting": "[2]; [5]", "result": 100, "unit": "%"}, {"measurement": "killing at 100 µM", "setting": "[2]; [3]", "result": 100, "unit": "%"}, {"measurement": "killing at 100 µM", "setting": "[2]; [4]", "result": 100, "unit": "%"}, {"measurement": "killing at 100 µM", "setting": "[2]; [5]", "result": 100, "unit": "%"}, {"measurement": "Killing activity 24hr", "setting": "[2]; 24 h", "result": 57.1, "unit": "%D"}, {"measurement": "Killing activity 48hr", "setting": "[2]; 48 h", "result": 57.1, "unit": "%D"}, {"measurement": "Killing activity 72hr", "setting": "[2]; 72 h", "result": 71.4, "unit": "%D"}]}
